In patent US20260256925A1, “INDAZOLE DERIVATIVES AS ESTROGEN RECEPTOR DEGRADERS” (REGENTS OF THE UNIVERSITY OF MICHIGAN, priority 2022, published 2026):

Target: T1, ER (Homo sapiens, UniProt P03372)
T1 construct: endogenous in cells; probably T47D or MCF-7
T1 sequence (P03372 1-595): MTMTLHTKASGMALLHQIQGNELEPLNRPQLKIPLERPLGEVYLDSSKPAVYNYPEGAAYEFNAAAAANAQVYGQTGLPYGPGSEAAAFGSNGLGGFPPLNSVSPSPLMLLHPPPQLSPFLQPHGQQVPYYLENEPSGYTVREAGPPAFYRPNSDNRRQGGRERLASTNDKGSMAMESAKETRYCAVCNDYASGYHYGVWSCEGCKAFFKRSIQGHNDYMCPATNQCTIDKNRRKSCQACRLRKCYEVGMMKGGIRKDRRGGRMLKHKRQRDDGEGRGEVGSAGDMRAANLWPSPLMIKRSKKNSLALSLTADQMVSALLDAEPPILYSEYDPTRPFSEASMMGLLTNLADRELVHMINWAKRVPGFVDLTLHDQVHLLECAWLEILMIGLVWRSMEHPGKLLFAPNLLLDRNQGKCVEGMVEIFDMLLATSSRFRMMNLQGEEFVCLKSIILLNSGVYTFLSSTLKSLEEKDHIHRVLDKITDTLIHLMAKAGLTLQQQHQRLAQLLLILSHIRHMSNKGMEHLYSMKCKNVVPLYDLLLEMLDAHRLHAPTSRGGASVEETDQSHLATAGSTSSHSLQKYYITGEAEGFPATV
Assay: Western blot analysis (compounds B1-B126)
Format: cell-based
Conditions: ER degradation, read-out: Traditional Western Degradation potency (DC50)
Method: Western Blot Analysis. The cells that are treated with the compounds are lysed in Radioimmunoprecipitation Assay Protein Lysis and Extraction Buffer (e.g., 25 mmol/L Tris.HCl, pH 7.6, 150 mmol/L NaCl, 1% Nonidet P-40, 1% sodium deoxycholate, and 0.1% sodium dodecyl sulfate) containing proteinase inhibitor cocktail. Equal amounts of total protein are electrophoresed through 10% SDS-polyacrylamide gels after determination of protein concentration by BCA assay. The separated protein bands are transferred onto PVDF membranes and blotted against different antibodies. The blots are scanned, and the band intensities are quantified (e.g., by using GelQuant.NET software provided by biochemlabsolutions.com). The relative mean intensity of target proteins is expressed after normalization to the intensity of glyceraldehyde-3-phosphate dehydrogenase bands.
Western Blot Analysis. Western blot analysis was performed essentially as described previously. The cells treated with indicated compounds were lysed in Radioimmunoprecipitation Assay Protein Lysis and Extraction Buffer (25 mmol/L Tris.HCl, pH 7.6, 150 mmol/L NaCl, 1% Nonidet P-40, 1% sodium deoxycholate, and 0.1% sodium dodecyl sulfate) containing proteinase inhibitor cocktail (Roche Diagnostics, Mannheim, Germany). Equal amounts of total protein were electrophoresed through 10% SDS-polyacrylamide gels after determination of protein concentration by BCA assay (Fisher Scientific, Pittsburgh, PA). The separated protein bands were transferred onto PVDF membranes (GE Healthcare Life Sciences, Marlborough, MA) and blotted against different antibodies, as indicated. The blots were scanned, and the band intensities were quantified using GelQuant.NET software provided by biochemlabsolutions.com. The relative mean intensity of target proteins was expressed after normalization to the intensity of glyceraldehyde-3-phosphate dehydrogenase bands.

Structure (SMILES)	DC50 [nM]
C[C@@H]1Cc2c(ccc3[nH]ncc23)[C@@H](c2c(F)cc(N3CCC4(CCN(C(=O)CN5Cc6cc7c(cc6C5)C(=O)N(C5CCC(=O)NC5=O)C7=O)CC4)C3)cc2F)N1CC(F)F (stereo partly drawn) [Compound B12, 6-(2-(2-(4-((6S,8R)-7-(2,2-difluoroethyl)-8-methyl-6,7,8,9-tetrahydro-3H-pyrazolo[4,3-f]isoquinolin-6-yl)-3,5-difluorophenyl)-2,8-diazaspiro[4.5]decan-8-yl)-2-oxoethyl)-2-(2,6-dioxopiperidin-3-yl)-6,7-dihydropyrrolo[3,4-f]isoindole-1,3(2H,5H)-dione]	10 to 100
C[C@@H]1Cc2c(ccc3[nH]ncc23)[C@@H](c2c(F)cc(N3CCC(CN4CCC(N5Cc6cc7c(cc6C5)C(=O)N(C5CCC(=O)NC5=O)C7)CC4)CC3)cc2F)N1CC(F)F (stereo partly drawn) [Compound B71, 3-(6-(1-((1-(4-((6S,8R)-7-(2,2-difluoroethyl)-8-methyl-6,7,8,9-tetrahydro-3H-pyrazolo[4,3-f]isoquinolin-6-yl)-3,5-difluorophenyl)piperidin-4-yl)methyl)piperidin-4-yl)-1-oxo-3,5,6,7-tetrahydropyrrolo[3,4-f]isoindol-2(1H)-yl)piperidine-2,6-dione]	10 to 100
C[C@@H]1Cc2c(ccc3[nH]ncc23)[C@@H](c2c(F)cc(N3CCC(CN4CCN(c5ccc6c(c5)C(=O)N(C5CCC(=O)NC5=O)C6=O)CC4)CC3)cc2F)N1CC(F)F (stereo partly drawn) [Compound B65, 5-(4-((1-(4-((6S,8R)-7-(2,2-difluoroethyl)-8-methyl-6,7,8,9-tetrahydro-3H-pyrazolo[4,3-f]isoquinolin-6-yl)-3,5-difluorophenyl)piperidin-4-yl)methyl)piperazin-1-yl)-2-(2,6-dioxopiperidin-3-yl)isoindoline-1,3-dione]	10 to 100
C[C@@H]1Cc2c(ccc3[nH]ncc23)[C@@H](c2c(F)cc(N3CCC(CN4CCC(N5Cc6cc7c(cc6C5=O)CN(C5CCC(=O)NC5=O)C7=O)CC4)CC3)cc2F)N1CC(F)F (stereo partly drawn) [Compound B19, 2-(1-((1-(4-((6S,8R)-7-(2,2-difluoroethyl)-8-methyl-6,7,8,9-tetrahydro-3H-pyrazolo[4,3-f]isoquinolin-6-yl)-3,5-difluorophenyl)piperidin-4-yl)methyl)piperidin-4-yl)-6-(2,6-dioxopiperidin-3-yl)-2,3,6,7-tetrahydropyrrolo[3,4-f]isoindole-1,5-dione]	< 10
C[C@@H]1Cc2c(ccc3[nH]ncc23)[C@@H](c2c(F)cc(N3CCC(CN4CCN5c6ccc7c(c6OC[C@@H]5C4)CN(C4CCC(=O)NC4=O)C7=O)CC3)cc2F)N1CC(F)F (stereo partly drawn) [Compound B105, 3-((S)-7-((1-(4-((6S,8R)-7-(2,2-difluoroethyl)-8-methyl-6,7,8,9-tetrahydro-3H-pyrazolo[4,3-f]isoquinolin-6-yl)-3,5-difluorophenyl)piperidin-4-yl)methyl)-1-oxo-1,3,5,5a,6,7,8,9-octahydro-2H-pyrazino[1′,2′:4,5][1,4]oxazino[2,3-e]isoindol-2-yl)piperidine-2,6-dione]	> 100
C[C@@H]1Cc2c(ccc3[nH]ncc23)[C@@H](c2c(F)cc(N3CCC(CN4CCN(c5cc6c(cc5F)C(=O)N(C5CCC(=O)NC5=O)C6=O)CC4)CC3)cc2F)N1CC(F)F (stereo partly drawn) [Compound B66, 5-(4-((1-(4-((6S,8R)-7-(2,2-difluoroethyl)-8-methyl-6,7,8,9-tetrahydro-3H-pyrazolo[4,3-f]isoquinolin-6-yl)-3,5-difluorophenyl)piperidin-4-yl)mcthyl)pipcrazin-1-yl)-2-(2,6-dioxopiperidin-3-yl)-6-fluoroisoindoline-1,3-dione]	10 to 100
C[C@@H]1Cc2c(ccc3[nH]ncc23)[C@@H](c2c(F)cc(N3CCC(CN4CC5(Cc6cc7c(cc6C5)C(=O)N(C5CCC(=O)NC5=O)C7=O)C4)CC3)cc2F)N1CC(F)F (stereo partly drawn) [Compound B14, 1-((1-(4-((6S,8R)-7-(2,2-difluoroethyl)-8-methyl-6,7,8,9-tetrahydro-3H-pyrazolo[4,3-f]isoquinolin-6-yl)-3,5-difluorophenyl)piperidin-4-yl)methyl)-2′-(2,6-dioxopiperidin-3-yl)-5′,7′-dihydro-1′H-spiro[azetidine-3,6′-cyclopenta[f]isoindole]-1′,3′(2′H)-dione]	> 100

Second part, the compound after the results:

DC50 [nM]	Structure (SMILES)
10 to 100	C[C@@H]1Cc2c(ccc3[nH]ncc23)[C@@H](c2c(F)cc(N3CCC(CN4CCC(N5Cc6cc7c(cc6C5)C(=O)N(C5CCC(=O)NC5=O)C7=O)CC4)CC3)cc2F)N1CC(F)F (stereo partly drawn) [Compound B70, 6-(1-((1-(4-((6S,8R)-7-(2,2-difluoroethyl)-8-methyl-6,7,8,9-tetrahydro-3H-pyrazolo[4,3-f]isoquinolin-6-yl)-3,5-difluorophenyl)piperidin-4-yl)methyl)piperidin-4-yl)-2-(2,6-dioxopiperidin-3-yl)-6,7-dihydropyrrolo[3,4-f]isoindole-1,3(2H,5H)-dione]
10 to 100	C[C@@H]1Cc2c(ccc3[nH]ncc23)[C@@H](c2ccc(C3CCC(C(=O)N4CCC(N5Cc6cc7c(cc6C5)C(=O)N(C5CCC(=O)NC5=O)C7=O)CC4)CC3)cn2)N1CC(F)(F)F (stereo partly drawn) [Compound B10, 2-(2,6-dioxopiperidin-3-yl)-6-(1-(4-(6-((6S,8R)-8-methyl-7-(2,2,2-trifluoroethyl)-6,7,8,9-tetrahydro-3H-pyrazolo[4,3-f]isoquinolin-6-yl)pyridin-3-yl)cyclohexane-1-carbonyl)piperidin-4-yl)-6,7-dihydropyrrolo[3,4-f]isoindole-1,3(2H,5H)-dione]
< 10	C[C@@H]1Cc2c(ccc3[nH]ncc23)[C@@H](c2c(F)cc(N3CCC(C(=O)N4CCC(N5Cc6cc7c(cc6C5)C(=O)N(C5CCC(=O)NC5=O)C7=O)CC4)CC3)cc2F)N1CC(F)F (stereo partly drawn) [Compound B6, 6-(1-(1-(4-((6S,8R)-7-(2,2-difluoroethyl)-8-methyl-6,7,8,9-tetrahydro-3H-pyrazolo[4,3-f]isoquinolin-6-yl)-3,5-difluorophenyl)piperidine-4-carbonyl)piperidin-4-yl)-2-(2,6-dioxopiperidin-3-yl)-6,7-dihydropyrrolo[3,4-f]isoindole-1,3(2H,5H)-dione]
< 10	C[C@@H]1Cc2c(ccc3[nH]ncc23)[C@@H](c2ccc(C3=CCC(C(=O)N4CCC(N5Cc6cc7c(cc6C5)C(=O)N(C5CCC(=O)NC5=O)C7=O)CC4)CC3)cn2)N1CC(F)(F)F (stereo partly drawn) [Compound B11, 2-(2,6-dioxopiperidin-3-yl)-6-(1-(4-(6-((6S,8R)-8-methyl-7-(2,2,2-trifluoroethyl)-6,7,8,9-tetrahydro-3H-pyrazolo[4,3-f]isoquinolin-6-yl)pyridin-3-yl)cyclohex-3-ene-1-carbonyl)piperidin-4-yl)-6,7-dihydropyrrolo[3,4-f]isoindole-1,3(2H,5H)-dione]
> 100	C[C@@H]1Cc2c(ccc3[nH]ncc23)[C@@H](c2c(F)cc(C3CCN(C(=O)[C@H]4CC[C@H](N5Cc6cc7c(cc6C5)C(=O)N(C5CCC(=O)NC5=O)C7=O)CC4)CC3)cc2F)N1CC(F)F (stereo partly drawn) [Compound B7, 6-((1S,4r)-4-(4-(4-((6S,8R)-7-(2,2-difluoroethyl)-8-methyl-6,7,8,9-tetrahydro-3H-pyrazolo[4,3-f]isoquinolin-6-yl)-3,5-difluorophenyl)piperidine-1-carbonyl)cyclohexyl)-2-(2,6-dioxopiperidin-3-yl)-6,7-dihydropyrrolo[3,4-f]isoindole-1,3(2H,5H)-dione]
> 100	C[C@@H]1Cc2c(ccc3[nH]ncc23)[C@@H](c2c(F)cc(C3CCN(C(=O)[C@H]4CC[C@@H](N5Cc6cc7c(cc6C5)C(=O)N(C5CCC(=O)NC5=O)C7=O)CC4)CC3)cc2F)N1CC(F)F (stereo partly drawn) [Compound B8, 6-((1R,4s)-4-(4-(4-((6S,8R)-7-(2,2-difluoroethyl)-8-methyl-6,7,8,9-tetrahydro-3H-pyrazolo[4,3-f]isoquinolin-6-yl)-3,5-difluorophenyl)piperidine-1-carbonyl)cyclohexyl)-2-(2,6-dioxopiperidin-3-yl)-6,7-dihydropyrrolo[3,4-f]isoindole-1,3(2H,5H)-dione]
